Measured values reported in patent EP0321368A1, “Heterocyclic N-carbamoyl, N-thiocarbamoyl or N-amidino-aminomalonyl or -aminosuccinyl amide derivatives as sweetening agents” (NOFRE, Claude, priority 1987, dated 1989).
Converted amounts (≈) assume the structure as drawn.

Columns and labels:
goûteurs expérimentés = experiment: Sweetening power judged by a panel of eight experienced tasters against a sucrose reference solution; type: in vivo; details: for pouvoir édulcorant: weight basis
Description: Le pouvoir édulcorant des composés ainsi préparés a été évalué par un groupe de huit goûteurs expérimentés. Pour cela, les composés, en solution aqueuse à des concentrations variables, sont comparés, sur le plan gustatif, à une solution témoin de saccharose à 2 % et dans certains cas à 5 % et 10 ^o/o, c'est-à-dire à des concentrations correspondant à celles utilisées lors d'un usage courant. Le pouvoir sucrant des édulcorants de synthèse varie en effet suivant la concentration de la solution de saccharose utilisée comme référence. Le pouvoir édulcorant du composé testé par rapport au saccharose correspond alors au rapport pondéral qui existe entre le composé et le saccharose à égale intensité édulcorante, c'est-à-dire quand les saveurs sucrées de la solution du composé testé et de la solution témoin de saccharose sont considérées, par une majorité de goûteurs, avoir la meme intensité édulcorante.

[1] = Solubility in water at pH 3 (phosphate buffer) near 0 °C, saturated filtrate assayed by HPLC; type: physicochemical; details: for solubility at 1 h: aqueous buffer, pH 3 (phosphate buffer), 0° C, read-out: solubilité; for solubilité, fois plus élevée que celle de l'analogue carbocyclique 4-cyanophényle: ratio to exemple 4 of EP-B-0107597, pH 3, 0° C
Protocol: La solubilité a été mesurée de manière suivante. On met en suspension dans l'eau à pH 3 (tampon phosphate) et à température voisine de 0° C (ce qui correspond aux conditions de préparation et de stockage des boissons gazeuses) un excès du composé dont veut déterminer la solubilité. On soumet alors la suspension, toujours dans un bain de glace, à l'action des ultrasons pendant 60 min, puis on filtre (sur filtre Millipore Millex-HV 0,45 micromètre). Le composé, qui se trouve ainsi dissous à saturation dans le filtrat, est dosé par chromatographie liquide haute performance (HPLC) par rapport à une solution de référence de concentration connue.

[2] = compared with a 2 % sucrose solution

| Structure (SMILES) | pouvoir édulcorant (goûteurs expérimentés; [2]) | further results |
| --- | --- | --- |
| COC(=O)[C@H](Cc1ccccc1)NC(=O)[C@H](CC(=O)O)NC(=O)Nc1cccnc1 [Exemple 1, N-(3-pyridylcarbamoyl)-L-aspartyl-L-phénylalanine méthyl ester] | ~100 fois celui du saccharose | – |
| COC(=O)[C@H](Cc1ccccc1)NC(=O)[C@H](CC(=O)O)NC(=S)Nc1cccnc1 [Exemple 2, N-(3-pyridylthiocarbamoyl)-L-aspartyl-L-phénylalanine méthyl ester] | ~1 000 fois celui du saccharose | – |
| COC(=O)[C@H](Cc1ccccc1)NC(=O)[C@H](CC(=O)O)NC(=O)Nc1ccc(Cl)nc1 [Exemple 3, N-(2-chloro-5-pyridylcarbamoyl)-L-aspartyl-L-phénylalanine méthyl ester] | ~500 fois celui du saccharose | – |
| COC(=O)[C@H](Cc1ccccc1)NC(=O)[C@H](CC(=O)O)NC(=O)Nc1ccc(C#N)nc1 [Exemple 4, N-(2-cyano-5-pyridylcarbamoyl)-L-aspartyl-L-phénylalanine méthyl ester] | ~8 000 fois celui du saccharose | fois plus sucré que le saccharose (goûteurs expérimentés; concentration of the sucrose reference not given): 8 000 fois; pouvoir édulcorant (goûteurs expérimentés; compared with a 5 % sucrose solution): ~6 000 fois; pouvoir édulcorant (goûteurs expérimentés; compared with a 10 % sucrose solution): ~4 000 fois; solubility at 1 h [1]: ~70 µg/mL (≈ 159 µM); solubilité, fois plus élevée que celle de l'analogue carbocyclique 4-cyanophényle [1]: ~3,5 fois |
| N#Cc1ccc(NC(=O)N[C@@H](CC(=O)O)C(=O)NC(c2ccccc2)c2ccco2)cn1 (stereo partly drawn) [Exemple 5, acide N-(2-cyano-5-pyridylcarbamoyl)-L-aspartique N-[(RS)-alpha-(2-furyl)benzyl] alpha-monoamide] | ~700 fois celui du saccharose | – |
| COC(=O)[C@H](Cc1ccccc1)NC(=O)[C@H](CC(=O)O)NC(=S)Nc1ccc(OC)nc1 [Exemple 6, N-(2-méthoxy-5-pyridylthiocarbamoyl)-L-aspartyl-L-phénylalanine méthyl ester] | ~1 400 fois celui du saccharose | – |
| COC(=O)[C@H](Cc1ccccc1)NC(=O)[C@H](CC(=O)O)NC(=S)Nc1cnc(C#N)nc1 [Exemple 7, N-(2-cyano-5-pyrimidinylthiocarbamoyl)-L-aspartyl-L-phénylalanine méthyl ester] | ~50 000 fois celui du saccharose | – |
| COC(=O)[C@H](Cc1ccccc1)NC(=O)[C@H](CC(=O)O)NC(=O)Nc1ccc2nonc2c1 [Exemple 8, N-(5-benzofurazanylcarbamoyl)-L-aspartyl-L-phénylalanine méthyl ester] | ~5 000 fois celui du saccharose | solubility at 1 h [1]: ~180 µg/mL (≈ 395 µM); solubilité, fois plus élevée que celle de l'analogue carbocyclique 4-cyanophényle [1]: ~9 fois |
| COC(=O)[C@H](Cc1ccccc1)NC(=O)[C@H](CC(=O)O)NC(=O)Nc1ccc2c(c1)no[n+]2[O-] [Exemple 9, N-(1-oxyde-5-benzofurazanylcarbamoyl)-L-aspartyl-L-phénylalanine méthyl ester] | ~2 000 fois celui du saccharose | – |
| COC(=O)[C@H](Cc1ccccc1)NC(=O)[C@H](CC(=O)O)NC(=O)Nc1ccc2nsnc2c1 [Exemple 10, N-(5-benzothiofurazanylcarbamoyl)-L-aspartyl-L-phénylalanine méthyl ester] | ~500 fois celui du saccharose | – |
| COC(=O)[C@H](Cc1ccccc1)NC(=O)[C@H](CC(=O)O)NC(=O)Nc1ccc2c(c1)OCO2 [Exemple 11, N-(3,4-méthylènedioxyphénylcarbamoyl)-L-aspartyl-L-phénylalanine méthyl ester] | ~50 fois celui du saccharose | – |
| COC(=O)[C@H](Cc1ccccc1)NC(=O)[C@H](CC(=O)O)NC(=O)Nc1ccc(C#N)cc1 [exemple 4 du brevet EP-B-0107597, reference compound] | – | solubility at 1 h [1]: ~20 µg/mL (≈ 45.6 µM) |
